According to ChEMBL document CHEMBL1201862, “PubChem BioAssay data set” (2004):
Calls of active or inactive are those of the source.

Key:
[1] = target: T1, G-protein coupled receptor 35 (Homo sapiens, UniProt Q9HC97); assay: GPR35 antagonists blocking zaprinast-driven arrestin recruitment, primary screen, imaging, U2OS, beta-arrestin-GFP, zaprinast agonist (AID 2058); assay type: functional;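 also: antagonist potency meaning inhibition of agonist-induced arrestin redistribution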
[2] = target: G-protein coupled receptor 55 (Homo sapiens, UniProt Q9Y2T6); assay: GPR55 antagonists, SAR follow-up, counter-screen for GPR35 antagonist project, imaging, image-based (AID 2397); assay type: functional
[3] = target: T2, Tyrosine-protein phosphatase non-receptor type 12 (Homo sapiens, UniProt Q05209); assay: SAR Selectivity Analysis of small molecule inhibitors of PEST using pCAP in a fluorescence assay. [Related pubchem assays (depositor defined):AID1779, AID1784, AID2135]; assay type: functional
T2 sequence (Q05209 whole entry): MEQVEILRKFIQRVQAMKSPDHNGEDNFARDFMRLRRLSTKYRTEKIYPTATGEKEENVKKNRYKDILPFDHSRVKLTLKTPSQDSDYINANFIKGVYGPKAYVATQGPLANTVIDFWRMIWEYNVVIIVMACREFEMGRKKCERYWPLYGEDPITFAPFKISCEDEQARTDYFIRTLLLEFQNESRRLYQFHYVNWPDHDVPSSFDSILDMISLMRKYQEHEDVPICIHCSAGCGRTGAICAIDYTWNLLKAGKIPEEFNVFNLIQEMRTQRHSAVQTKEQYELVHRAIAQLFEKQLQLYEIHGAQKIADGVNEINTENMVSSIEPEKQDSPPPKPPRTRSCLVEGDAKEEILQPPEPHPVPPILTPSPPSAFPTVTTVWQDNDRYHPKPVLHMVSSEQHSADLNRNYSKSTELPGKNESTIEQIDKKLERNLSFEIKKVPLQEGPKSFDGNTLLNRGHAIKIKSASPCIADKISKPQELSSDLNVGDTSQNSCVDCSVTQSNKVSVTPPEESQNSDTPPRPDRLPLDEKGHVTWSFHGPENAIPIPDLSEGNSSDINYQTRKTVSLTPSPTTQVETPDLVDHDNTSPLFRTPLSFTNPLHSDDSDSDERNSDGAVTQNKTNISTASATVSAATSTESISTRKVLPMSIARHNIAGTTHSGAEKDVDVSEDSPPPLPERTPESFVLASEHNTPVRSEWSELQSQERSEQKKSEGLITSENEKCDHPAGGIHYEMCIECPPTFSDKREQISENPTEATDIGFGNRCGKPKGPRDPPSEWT

[4] = target: T3, Tyrosine-protein phosphatase non-receptor type 7 (Homo sapiens, UniProt P35236); assay: HePTP (PTPN7) phosphatase inhibitor potency, SAR follow-up, biochemical, set 2 (AID 449736); assay type: functional
T3 sequence (P35236 whole entry): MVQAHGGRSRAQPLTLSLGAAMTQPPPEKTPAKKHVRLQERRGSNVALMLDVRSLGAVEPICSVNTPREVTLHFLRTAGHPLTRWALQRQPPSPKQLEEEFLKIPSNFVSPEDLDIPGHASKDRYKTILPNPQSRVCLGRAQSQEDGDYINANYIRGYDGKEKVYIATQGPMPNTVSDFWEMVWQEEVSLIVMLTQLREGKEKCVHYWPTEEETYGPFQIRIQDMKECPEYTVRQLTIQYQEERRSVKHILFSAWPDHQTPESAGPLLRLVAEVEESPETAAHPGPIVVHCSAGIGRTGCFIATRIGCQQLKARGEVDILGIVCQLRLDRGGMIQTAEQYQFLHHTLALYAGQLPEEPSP

[5] = target: T1, G-protein coupled receptor 35; assay: SAR Analysis for the identification of Selective Antagonists of ERK1/2 Activity in GPR35-Overexpressing U2OS Cells. [Related pubchem assays: 2079, 2058 ]; assay type: functional, cell-based
[6] = target: T4, Tyrosine-protein phosphatase non-receptor type 22 (Homo sapiens, UniProt Q9Y2R2); assay: SAR LYP1 Fluorescent Assay using OMFP substrate for In Vitro dose response studies - Set 3. [Related pubchem assays (depositor defined):AID1779, AID1784, AID2140, AID2686]; assay type: functional
T4 sequence (Q9Y2R2 whole entry): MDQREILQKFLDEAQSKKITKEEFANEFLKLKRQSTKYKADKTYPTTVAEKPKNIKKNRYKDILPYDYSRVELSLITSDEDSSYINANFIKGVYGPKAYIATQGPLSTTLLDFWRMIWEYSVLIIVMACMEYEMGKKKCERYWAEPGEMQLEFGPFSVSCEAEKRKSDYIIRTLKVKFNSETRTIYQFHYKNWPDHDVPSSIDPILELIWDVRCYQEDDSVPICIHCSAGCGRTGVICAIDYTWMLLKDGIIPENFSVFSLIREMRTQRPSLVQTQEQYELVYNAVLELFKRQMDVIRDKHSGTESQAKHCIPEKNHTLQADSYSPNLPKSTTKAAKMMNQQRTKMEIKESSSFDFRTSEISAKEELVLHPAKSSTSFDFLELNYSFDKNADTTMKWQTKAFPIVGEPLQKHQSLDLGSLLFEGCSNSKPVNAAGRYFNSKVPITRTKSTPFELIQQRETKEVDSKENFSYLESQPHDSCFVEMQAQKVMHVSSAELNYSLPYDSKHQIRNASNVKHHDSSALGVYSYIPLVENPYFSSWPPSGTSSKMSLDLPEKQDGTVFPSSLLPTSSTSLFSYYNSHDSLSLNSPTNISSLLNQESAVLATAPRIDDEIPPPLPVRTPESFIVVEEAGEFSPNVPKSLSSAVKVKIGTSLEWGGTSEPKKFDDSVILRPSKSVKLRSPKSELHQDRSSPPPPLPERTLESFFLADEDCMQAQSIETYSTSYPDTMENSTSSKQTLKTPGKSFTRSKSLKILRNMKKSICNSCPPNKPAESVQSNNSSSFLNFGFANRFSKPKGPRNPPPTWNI

[7] = target: T4, Tyrosine-protein phosphatase non-receptor type 22; assay: LYP (PTPN22) phosphatase inhibitor potency, SAR follow-up, biochemical, pCAP fluorogenic substrate, fluorescence, set 3 (AID 449727); assay type: functional
[8] = target: Sphingosine 1-phosphate receptor 2 (Homo sapiens, UniProt O95136); assay: Late stage counterscreen assay for S1P4 antagonists: Fluorescence dose response cell-based screening assay for antagonists of the Sphingosine 1-Phosphate Receptor 2 (S1P2). [Related pubchem assays (depositor defined):AID1510, AID1524, AID1692, AID1853, AID2332, AID489009, AID489017]; assay type: functional
[9] = target: T5, Sphingosine 1-phosphate receptor 4 (Homo sapiens, UniProt O95977); assay: S1P4 receptor antagonists, human, late-stage follow-up, cell-based, fluorescence, synthesized analogues (AID 2346); assay type: functional
T5 sequence (O95977 whole entry): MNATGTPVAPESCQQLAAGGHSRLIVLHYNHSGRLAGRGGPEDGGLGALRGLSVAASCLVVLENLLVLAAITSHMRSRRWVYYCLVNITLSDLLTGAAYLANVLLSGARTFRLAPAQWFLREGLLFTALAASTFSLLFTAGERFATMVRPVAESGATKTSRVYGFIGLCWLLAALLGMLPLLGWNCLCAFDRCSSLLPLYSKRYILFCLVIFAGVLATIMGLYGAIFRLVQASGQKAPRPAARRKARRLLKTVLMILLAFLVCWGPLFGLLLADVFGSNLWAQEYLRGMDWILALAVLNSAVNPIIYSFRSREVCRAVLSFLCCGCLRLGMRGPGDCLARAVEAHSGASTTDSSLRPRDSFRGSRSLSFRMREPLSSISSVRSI

[10] = target: Sphingosine 1-phosphate receptor 5 (Homo sapiens, UniProt Q9H228); assay: Late stage counterscreen assay for S1P4 antagonists: Fluorescence dose response cell-based screening assay for antagonists of the Sphingosine 1-Phosphate Receptor 5 (S1P5). [Related pubchem assays (depositor defined):AID1510, AID1524, AID1692, AID1853, AID2332, AID489009, AID489017]; assay type: functional
[11] = target: Sphingosine 1-phosphate receptor 1 (Homo sapiens, UniProt P21453); assay: Late stage counterscreen assay for S1P4 antagonists: Fluorescence dose response cell-based screening assay for antagonists of the Sphingosine 1-Phosphate Receptor 1 (S1P1). [Related pubchem assays (depositor defined):AID1510, AID1524, AID1692, AID1853, AID2332, AID489009, AID489017]; assay type: functional
[12] = target: Sphingosine 1-phosphate receptor 3 (Homo sapiens, UniProt Q99500); assay: Late stage counterscreen assay for S1P4 antagonists: Fluorescence dose response cell-based screening assay for antagonists of the Sphingosine 1-Phosphate Receptor 3 (S1P3). [Related pubchem assays (depositor defined):AID1510, AID1524, AID1692, AID1853, AID2332, AID489009, AID489017]; assay type: functional
[13] = target: T6, Voltage-gated N-type calcium channel alpha-1B subunit/Amyloid beta A4 precursor protein-binding family A member 1 (Homo sapiens, UniProt Q00975+Q02410); assay: disruptors of Mint-PDZ/N-type channel peptide interaction – biochemical, HTRF, set 2, SAR follow-up (AID 434980); assay type: functional
[14] = target: T6, Voltage-gated N-type calcium channel alpha-1B subunit/Amyloid beta A4 precursor protein-binding family A member 1; assay: disruptors of Mint-PDZ/N-type channel peptide interaction – biochemical, HTRF, SAR follow-up (AID 2489); assay type: functional
[15] = target: SUMO E1/E2 (Homo sapiens, UniProt P63279+Q9UBE0+Q9UBT2); assay: SAR analysis of SUMOylation using HTRF in an in-Vitro dose response assay. [Related pubchem assays (depositor defined):AID2006, AID2011, AID2018, AID2069, AID2658]; assay type: functional

Measured: IC50

T1 sequence (Q9HC97 whole entry): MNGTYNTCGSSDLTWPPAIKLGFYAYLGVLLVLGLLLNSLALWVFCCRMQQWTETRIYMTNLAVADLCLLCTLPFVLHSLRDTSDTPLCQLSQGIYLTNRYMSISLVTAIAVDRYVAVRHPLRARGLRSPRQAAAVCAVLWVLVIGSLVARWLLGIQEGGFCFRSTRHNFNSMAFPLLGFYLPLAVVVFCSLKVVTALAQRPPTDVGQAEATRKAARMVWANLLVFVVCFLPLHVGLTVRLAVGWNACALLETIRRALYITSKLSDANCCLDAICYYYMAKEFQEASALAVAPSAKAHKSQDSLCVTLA
T6 sequence (Q00975 whole entry): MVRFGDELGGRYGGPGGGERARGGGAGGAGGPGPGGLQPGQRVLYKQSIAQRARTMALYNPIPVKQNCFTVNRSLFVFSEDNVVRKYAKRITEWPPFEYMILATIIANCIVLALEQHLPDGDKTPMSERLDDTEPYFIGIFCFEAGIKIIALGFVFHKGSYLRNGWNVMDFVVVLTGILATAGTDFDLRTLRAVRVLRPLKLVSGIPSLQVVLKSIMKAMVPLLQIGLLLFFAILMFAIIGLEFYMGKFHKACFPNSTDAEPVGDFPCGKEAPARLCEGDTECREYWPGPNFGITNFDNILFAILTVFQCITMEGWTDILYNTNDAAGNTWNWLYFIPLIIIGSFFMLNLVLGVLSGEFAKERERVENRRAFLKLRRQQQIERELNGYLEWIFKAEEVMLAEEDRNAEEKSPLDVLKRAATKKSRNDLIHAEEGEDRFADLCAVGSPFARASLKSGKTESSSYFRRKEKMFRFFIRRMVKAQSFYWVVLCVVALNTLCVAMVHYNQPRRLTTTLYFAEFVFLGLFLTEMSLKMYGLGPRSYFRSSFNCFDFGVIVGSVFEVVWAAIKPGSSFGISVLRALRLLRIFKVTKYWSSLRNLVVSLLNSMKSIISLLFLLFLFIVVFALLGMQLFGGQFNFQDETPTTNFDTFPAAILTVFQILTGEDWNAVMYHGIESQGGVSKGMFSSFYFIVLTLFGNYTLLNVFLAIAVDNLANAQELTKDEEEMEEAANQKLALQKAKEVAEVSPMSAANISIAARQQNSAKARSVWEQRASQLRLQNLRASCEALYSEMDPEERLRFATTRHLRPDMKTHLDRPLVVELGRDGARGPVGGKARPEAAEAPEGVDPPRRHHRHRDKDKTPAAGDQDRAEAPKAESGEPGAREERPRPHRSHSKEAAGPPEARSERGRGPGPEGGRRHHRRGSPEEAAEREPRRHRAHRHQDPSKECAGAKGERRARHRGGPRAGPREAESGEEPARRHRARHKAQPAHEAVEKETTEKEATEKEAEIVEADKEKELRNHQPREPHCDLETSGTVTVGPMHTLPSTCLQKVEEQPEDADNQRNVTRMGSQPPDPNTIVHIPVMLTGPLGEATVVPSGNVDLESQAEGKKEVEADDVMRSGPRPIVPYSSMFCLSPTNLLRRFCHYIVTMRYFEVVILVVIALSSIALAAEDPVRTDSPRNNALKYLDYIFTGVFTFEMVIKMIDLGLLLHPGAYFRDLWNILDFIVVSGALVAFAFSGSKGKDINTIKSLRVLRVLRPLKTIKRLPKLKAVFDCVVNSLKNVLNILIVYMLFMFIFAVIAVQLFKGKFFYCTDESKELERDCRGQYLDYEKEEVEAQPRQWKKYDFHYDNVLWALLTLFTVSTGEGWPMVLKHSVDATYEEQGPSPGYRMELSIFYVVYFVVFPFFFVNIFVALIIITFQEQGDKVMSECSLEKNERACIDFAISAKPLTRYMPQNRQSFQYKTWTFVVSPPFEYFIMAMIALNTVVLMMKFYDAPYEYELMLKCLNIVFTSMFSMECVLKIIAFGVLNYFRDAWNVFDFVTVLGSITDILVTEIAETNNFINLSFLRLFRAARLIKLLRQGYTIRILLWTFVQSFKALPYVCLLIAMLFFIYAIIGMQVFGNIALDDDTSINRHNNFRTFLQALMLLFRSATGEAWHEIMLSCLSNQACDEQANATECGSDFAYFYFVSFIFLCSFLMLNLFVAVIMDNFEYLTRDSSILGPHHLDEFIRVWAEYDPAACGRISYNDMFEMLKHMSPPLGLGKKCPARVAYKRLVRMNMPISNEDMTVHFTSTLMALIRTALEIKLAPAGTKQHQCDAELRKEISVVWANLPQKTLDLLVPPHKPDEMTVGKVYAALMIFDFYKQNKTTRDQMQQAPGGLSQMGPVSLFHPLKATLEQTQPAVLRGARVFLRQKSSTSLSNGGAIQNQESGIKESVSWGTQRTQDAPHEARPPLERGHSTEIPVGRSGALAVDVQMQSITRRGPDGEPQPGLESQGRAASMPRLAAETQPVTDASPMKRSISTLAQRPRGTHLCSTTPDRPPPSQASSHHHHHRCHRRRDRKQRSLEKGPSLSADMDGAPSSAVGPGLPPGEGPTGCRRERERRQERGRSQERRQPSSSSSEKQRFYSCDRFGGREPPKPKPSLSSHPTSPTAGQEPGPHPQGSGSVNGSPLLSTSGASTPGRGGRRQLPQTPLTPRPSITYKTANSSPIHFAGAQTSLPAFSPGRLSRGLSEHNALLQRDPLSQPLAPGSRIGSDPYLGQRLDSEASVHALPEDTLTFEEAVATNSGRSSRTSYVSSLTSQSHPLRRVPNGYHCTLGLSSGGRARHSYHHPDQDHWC
T6 sequence (Q02410 whole entry): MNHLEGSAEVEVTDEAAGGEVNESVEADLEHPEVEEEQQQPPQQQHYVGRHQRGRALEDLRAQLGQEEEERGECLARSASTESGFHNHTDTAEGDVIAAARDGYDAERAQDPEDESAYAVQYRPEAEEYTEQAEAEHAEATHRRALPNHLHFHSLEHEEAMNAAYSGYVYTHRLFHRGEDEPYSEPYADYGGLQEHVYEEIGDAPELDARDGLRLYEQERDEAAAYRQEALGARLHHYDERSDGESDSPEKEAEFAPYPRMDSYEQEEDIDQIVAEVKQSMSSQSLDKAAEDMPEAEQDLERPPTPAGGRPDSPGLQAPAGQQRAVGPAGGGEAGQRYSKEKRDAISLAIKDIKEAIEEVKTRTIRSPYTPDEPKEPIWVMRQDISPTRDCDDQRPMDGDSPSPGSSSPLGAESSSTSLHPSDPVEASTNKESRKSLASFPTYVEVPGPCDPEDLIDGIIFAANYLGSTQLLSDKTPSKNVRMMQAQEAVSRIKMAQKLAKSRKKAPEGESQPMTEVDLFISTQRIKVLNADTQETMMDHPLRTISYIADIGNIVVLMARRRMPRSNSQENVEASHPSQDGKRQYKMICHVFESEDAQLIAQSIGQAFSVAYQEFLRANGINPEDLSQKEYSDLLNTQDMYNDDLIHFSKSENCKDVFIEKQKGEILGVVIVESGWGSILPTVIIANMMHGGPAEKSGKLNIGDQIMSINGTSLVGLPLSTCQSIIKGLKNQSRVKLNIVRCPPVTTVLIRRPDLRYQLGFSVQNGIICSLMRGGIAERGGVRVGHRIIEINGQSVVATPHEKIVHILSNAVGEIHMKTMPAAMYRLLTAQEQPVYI
Chain of Sphingosine 1-phosphate receptor 1 (P21453 whole entry): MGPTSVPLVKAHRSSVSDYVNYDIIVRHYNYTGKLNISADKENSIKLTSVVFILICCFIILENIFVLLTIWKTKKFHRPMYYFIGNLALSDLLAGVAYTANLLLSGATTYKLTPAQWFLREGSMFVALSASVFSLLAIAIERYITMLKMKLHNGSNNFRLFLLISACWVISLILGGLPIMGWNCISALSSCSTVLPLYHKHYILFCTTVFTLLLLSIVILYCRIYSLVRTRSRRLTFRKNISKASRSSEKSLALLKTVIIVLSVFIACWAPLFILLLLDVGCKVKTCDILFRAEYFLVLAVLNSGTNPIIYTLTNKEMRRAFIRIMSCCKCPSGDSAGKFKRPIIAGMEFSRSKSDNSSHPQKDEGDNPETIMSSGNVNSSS
Chain of Sphingosine 1-phosphate receptor 5 (Q9H228 whole entry): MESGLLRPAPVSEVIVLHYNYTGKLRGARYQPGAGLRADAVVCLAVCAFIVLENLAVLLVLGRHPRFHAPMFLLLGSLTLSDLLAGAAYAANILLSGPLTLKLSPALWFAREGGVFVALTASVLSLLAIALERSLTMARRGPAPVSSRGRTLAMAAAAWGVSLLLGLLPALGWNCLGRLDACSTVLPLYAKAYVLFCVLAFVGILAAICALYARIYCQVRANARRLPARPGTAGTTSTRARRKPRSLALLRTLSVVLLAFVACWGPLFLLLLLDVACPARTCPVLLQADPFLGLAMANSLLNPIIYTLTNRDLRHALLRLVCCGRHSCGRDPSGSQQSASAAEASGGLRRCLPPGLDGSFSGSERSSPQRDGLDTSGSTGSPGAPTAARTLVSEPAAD
Chain of Sphingosine 1-phosphate receptor 3 (Q99500 whole entry): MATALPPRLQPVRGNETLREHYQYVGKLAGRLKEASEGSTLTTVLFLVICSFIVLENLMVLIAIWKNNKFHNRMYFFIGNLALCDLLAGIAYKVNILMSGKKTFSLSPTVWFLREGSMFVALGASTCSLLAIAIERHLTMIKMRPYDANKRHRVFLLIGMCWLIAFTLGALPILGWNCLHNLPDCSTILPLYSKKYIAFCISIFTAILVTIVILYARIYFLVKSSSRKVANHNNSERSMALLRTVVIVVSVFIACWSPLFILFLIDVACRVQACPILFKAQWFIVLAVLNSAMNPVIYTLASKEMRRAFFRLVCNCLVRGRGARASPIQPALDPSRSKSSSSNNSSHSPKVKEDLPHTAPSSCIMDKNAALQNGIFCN
Chain of Sphingosine 1-phosphate receptor 2 (O95136 whole entry): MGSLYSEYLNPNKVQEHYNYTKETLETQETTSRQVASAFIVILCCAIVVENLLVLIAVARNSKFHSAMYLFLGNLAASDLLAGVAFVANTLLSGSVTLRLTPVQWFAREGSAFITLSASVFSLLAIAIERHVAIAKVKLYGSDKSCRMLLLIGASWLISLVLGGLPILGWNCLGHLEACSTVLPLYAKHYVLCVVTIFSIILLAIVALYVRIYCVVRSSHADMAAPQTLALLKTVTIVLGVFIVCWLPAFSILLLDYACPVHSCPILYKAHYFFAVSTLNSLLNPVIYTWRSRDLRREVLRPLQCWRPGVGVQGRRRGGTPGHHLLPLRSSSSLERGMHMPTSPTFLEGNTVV

O=C(CCCN1C(=O)/C(=C\c2ccccc2)SC1=S)Nc1ccc(C(=O)O)cc1
active: [1] 1.16 µM | [3] 15.8 µM | [4] 1.89 µM | [5] 3.29 µM | [6] 72.2 µM | [7] 79.5 µM
inactive: [2] > 32 µM

CCc1cccc(C)c1NC(=O)c1ccc(-c2ccccc2Cl)o1
active: [9] 0.269 µM
inactive: [8] > 25 µM | [10] > 25 µM | [11] > 25 µM | [12] > 25 µM

CN(Cc1ccc(F)cc1)C(=O)COC(=O)c1cc(-c2ccco2)nc2ccccc12
active: [13] 11.5 µM | [14] 19.1 µM | [15] 2.41 µM
